In brackets after ≈: the same amount, converted by molar mass. Like-named read-outs stand apart in the source and are kept apart here.
Assays:
[1] = tested on: B.subtilis ATCC 6633 HPR022; test: Antibacterial activity (MIC), type strains; type: cell-based; details: Bacillus subtilis, ATCC6633; type strain B.subtilis ATCC 6633 HPR022; 10^6/ml of colony forming bacteria
Protocol: (§1) Antibacterial activities (minimum inhibitory concentration: MIC) were determined according to the standard method of the Japan Society of Chemotherapy [Chemotherapy, Vol. 29, p.76 (1981)] by using type strains and strains isolated from patients with infectious disease (including clinical isolates and atypical acid-fast bacteria), and applying 10^6/ml of colony forming bacteria. Linezolid was used as the reference compound [a compound described in Journal of Medicinal Chemistry, Vol. 39, p.673 (1996), hereinafter referred to as "reference compound"].

[2] = tested on: S.aureus MS353 HPC017; test: Antibacterial activity (MIC), type strains; type: cell-based; details: Staphylococcus aureus, MS353HPC017
Protocol: as §1

[3] = tested on: S.aureus Smith HPC023; test: Antibacterial activity (MIC), type strains; type: cell-based; details: Staphylococcus aureus
Protocol: as §1

[4] = tested on: MRSA HPC 1336; test: Antibacterial activity (MIC), clinical isolates; type: cell-based, Methicillin-resistant Staphylococcus aureus; details: Staphylococcus aureus
Protocol: as §1

[5] = tested on: MRSA HPC 432; test: Antibacterial activity (MIC), clinical isolates; type: cell-based, Methicillin-resistant Staphylococcus aureus; details: Staphylococcus aureus
Protocol: as §1

[6] = tested on: E.faecalis HPC 1321; test: Antibacterial activity (MIC), clinical isolates; type: cell-based; details: Enterococcus faecalis, HPC1321
Protocol: as §1

[7] = tested on: E.faecium HPC 1322; test: Antibacterial activity (MIC), clinical isolates; type: cell-based; details: Enterococcus faecium, HPC1322
Protocol: as §1

[8] = tested on: S.epidermidis HPC 1728; test: Antibacterial activity (MIC), clinical isolates; type: cell-based; details: Staphylococcus epidermidis, HPC1728
Protocol: as §1

[9] = tested on: M.avium 20092; test: Antibacterial activity (MIC), atypical acid-fast bacteria; type: cell-based; details: Mycobacterium avium, 10^6/ml of colony forming bacteria
Protocol: as §1

[10] = tested on: M.avium 20096; test: as above; type: cell-based; details: Mycobacterium avium, 10^6/ml of colony forming bacteria
Protocol: as §1

[11] = tested on: M.intracellulare 20067; test: as above; type: cell-based; details: Mycobacterium intracellulare, 10^6/ml of colony forming bacteria
Protocol: as §1

[12] = tested on: M.intracellulare 20073; test: as above; type: cell-based; details: Mycobacterium intracellulare, 10^6/ml of colony forming bacteria
Protocol: as §1

[13] = type strain S.aureus MS353 HPC017, 10^6/ml of colony forming bacteria, read-out: MIC
[14] = type strain S.aureus Smith HPC023, 10^6/ml of colony forming bacteria, read-out: MIC
[15] = clinical isolate MRSA HPC 1336, 10^6/ml of colony forming bacteria, read-out: MIC
[16] = clinical isolate MRSA HPC 432, 10^6/ml of colony forming bacteria, read-out: MIC
[17] = clinical isolate E.faecalis HPC 1321, 10^6/ml of colony forming bacteria, read-out: MIC
[18] = clinical isolate E.faecium HPC 1322, 10^6/ml of colony forming bacteria, read-out: MIC
[19] = clinical isolate S.epidermidis HPC 1728, 10^6/ml of colony forming bacteria, read-out: MIC

SMILES | MIC [1] [mg/L] | MIC [2, 13] [mg/L] | MIC [3, 14] [mg/L] | MIC [4, 15] [mg/L] | MIC [5, 16] [mg/L] | MIC [6, 17] [mg/L] | MIC [7, 18] [mg/L] | MIC [8, 19] [mg/L] | MIC [9] [mg/L] | MIC [10] [mg/L] | MIC [11] [mg/L] | MIC [12] [mg/L] | MIC [2] [mg/L] | MIC [3] [mg/L] | MIC ([4]; MRSA) [mg/L] | MIC ([5]; MRSA) [mg/L] | MIC [6] [mg/L] | MIC [7] [mg/L] | MIC [8] [mg/L]
COC(=S)NC[C@H]1CN(c2ccc(N3CC[S+]([O-])CC3)c(F)c2)C(=O)O1 [Example 2] | 0.39 (≈ 0.971 µM) | 0.78 (≈ 1.94 µM) | 0.78 (≈ 1.94 µM) | 0.78 (≈ 1.94 µM) | 0.78 (≈ 1.94 µM) | 0.39 (≈ 0.971 µM) | 0.39 (≈ 0.971 µM) | 0.78 (≈ 1.94 µM) | 3.13 (≈ 7.8 µM) | 3.13 (≈ 7.8 µM) | 6.25 (≈ 15.6 µM) | 6.25 (≈ 15.6 µM) |  |  |  |  |  |  | 
COC(=S)NC[C@H]1CN(c2ccc(N3CCSCC3)c(F)c2)C(=O)O1 [Example 1, O-Methyl (S)-N-[3-[3-fluoro-4-(thiomorpholin-4-yl)phenyl]-2-oxooxazolidin-5-yl]methylthiocarbamate] | 0.39 (≈ 1.01 µM) | 0.78 (≈ 2.02 µM) | 1.56 (≈ 4.05 µM) | 0.78 (≈ 2.02 µM) | 0.78 (≈ 2.02 µM) | 0.78 (≈ 2.02 µM) | 0.78 (≈ 2.02 µM) | 0.78 (≈ 2.02 µM) | 0.39 (≈ 1.01 µM) | 0.39 (≈ 1.01 µM) | 0.39 (≈ 1.01 µM) | 0.39 (≈ 1.01 µM) |  |  |  |  |  |  | 
CC(=O)NC[C@H]1CN(c2ccc(N3CCOCC3)c(F)c2)C(=O)O1 [Reference compound, Linezolid, reference compound] | 0.78 (≈ 2.31 µM) |  |  |  |  |  |  |  | 25 (≈ 74.1 µM) | 50 (≈ 148 µM) | 12.5 (≈ 37.1 µM) | 6.25 (≈ 18.5 µM) | 3.13 (≈ 9.28 µM) | 3.13 (≈ 9.28 µM) | 3.13 (≈ 9.28 µM) | 3.13 (≈ 9.28 µM) | 1.56 (≈ 4.62 µM) | 1.56 (≈ 4.62 µM) | 3.13 (≈ 9.28 µM)

More lines, main results first:

MIC [1] [mg/L] | MIC [2, 13] [mg/L] | MIC [3, 14] [mg/L] | MIC [4, 15] [mg/L] | MIC [5, 16] [mg/L] | MIC [6, 17] [mg/L] | MIC [7, 18] [mg/L] | MIC [8, 19] [mg/L] | MIC [9] [mg/L] | MIC [10] [mg/L] | MIC [11] [mg/L] | MIC [12] [mg/L] | SMILES | MIC [2] [mg/L] | MIC [3] [mg/L] | MIC ([4]; MRSA) [mg/L] | MIC ([5]; MRSA) [mg/L] | MIC [6] [mg/L] | MIC [7] [mg/L] | MIC [8] [mg/L]
0.39 (≈ 1.1 µM) | 0.39 (≈ 1.1 µM) | 0.39 (≈ 1.1 µM) | 0.39 (≈ 1.1 µM) | 0.39 (≈ 1.1 µM) | 0.39 (≈ 1.1 µM) | 0.39 (≈ 1.1 µM) | 0.39 (≈ 1.1 µM) | 1.56 (≈ 4.41 µM) | 1.56 (≈ 4.41 µM) | 1.56 (≈ 4.41 µM) | 0.78 (≈ 2.21 µM) | COC(=S)NC[C@H]1CN(c2ccc(N3CCCC3)c(F)c2)C(=O)O1 [Example 4] |  |  |  |  |  |  | 
0.39 (≈ 0.934 µM) | 0.78 (≈ 1.87 µM) | 0.78 (≈ 1.87 µM) | 0.78 (≈ 1.87 µM) | 0.78 (≈ 1.87 µM) | 0.39 (≈ 0.934 µM) | 0.39 (≈ 0.934 µM) | 0.39 (≈ 0.934 µM) | 3.13 (≈ 7.5 µM) | 3.13 (≈ 7.5 µM) | 3.13 (≈ 7.5 µM) | 3.13 (≈ 7.5 µM) | COC(=S)NC[C@H]1CN(c2ccc(N3CCS(=O)(=O)CC3)c(F)c2)C(=O)O1 [Example 3] |  |  |  |  |  |  | 

From patent EP1130016A1, “THIOCARBAMIC ACID DERIVATIVES” (HOKURIKU SEIYAKU CO., LTD., priority 1998, dated 2000)
